The text below walks through data of patent publication US11197863B2, “Inhibitors of polo-like kinase 4 (PLK4) for treating pediatric embryonal tumors” (ANN AND ROBERT H. LURIE CHILDREN'S HOSPITAL OF CHICAGO, priority 2017, dated 2021).

By IC50 is commonly meant the point on the concentration scale where inhibition reaches its midpoint. A high value points to a need for much substance. By Kp is commonly meant tissue or fluid exposure divided by exposure in the circulation.

The test system of data set [1] is DAOY MB cells. Nature of the data set: Confluency assay (IncuCyte ZOOM). The settings on record: increasing concentrations, 48 hour period, p-value=0.029. It is filed as cell-based, human. As for the experimental part: For further evaluation of the effect of the PLK4 inhibitor over tumor cell proliferation, confluency was measured over a 48 hour period. MON, BT-12, G401 and DAOY cells were plated in 96-well plates with a density of 6×10^4 per well. […] Confluency was monitored for 48 hours by taking phase contrast images every 2 hours and measured using an IncuCyte ZOOM system (Essen BioScience, USA). Experiments were performed in triplicates.

For data set [2], the system named is RT and MB cell lines. Nature of the data set: Clonogenic recovery assay. It is filed as cell-based, human. The settings on record: 100 nM for 6 days, then 12 days drug-free. As for the experimental part: For each cell line, 200 cells were seeded into 6-well tissue culture plates. […] On the 7th day, cell were washed with IX PBS twice and then incubated with 0.1% DMSO for an additional 12 days. […] The number of colonies was counted. All experiments were performed in triplicates.

Data set [3] deals with G401, BT-12, BT-16, DAOY and D283 cell lines. Description: Immunofluorescence for gamma-tubulin (centriole number). It is filed as cell-based, human. As for the experimental part:
(§1) The cells were then blocked in blocking buffer (5% BSA (Jackson Immuno Research Laboratories Inc., USA) in PBST) for 1 hour at RT. The primary antibody ([…] 1:500, Sigma, USA) diluted in 1% BSA in PBST was then added and incubated at 4° C. overnight. Then, the cells were washed with 1×PBS thrice. Secondary antibody (Anti-Rabbit IgG (H+L) F (ab′) 2, 1:500, Sigma, USA) diluted in 1% BSA in PBST was added and incubated at RT for 2 hours. Three time washes with IX PBS were performed. Then, 1 mL of DAPI (Thermo Fisher Scientific, USA) in PBS (0.5 μl of DAPI in 10 ml PBS) was added to the cells and incubated for 10 min at RT. Finally, 3 time washes with 1×PBS were performed and slides were mounted using Mounting Medium (Thermo Fisher Scientific, USA).

Data set [4] concerns MON rhabdoid cells. The description is as above. It is filed as cell-based, human. The settings on record: 48 hours. As for the experimental part:
as §1

For data set [5], the system named is MON, G401, BT-12, BT-16 DAOY and D283 cells. Description: Senescence beta galactosidase assay. Format: cell-based, human. The settings on record: 100 nM, 48 hours; all cell lines. As for the experimental part: For each cell line, cells were seeded in 6-well plates in triplicates with 100,000 cells per well. Treatment medium was added the next day and incubated for 48 or 72 hrs. After incubation, cells were washed twice with 1×PBS and 1 mL of the Fixation Buffer from the kit was added to each well of the plate and incubated at RT for 5 min. Cells were washed with 1×PBS and 1 mL of staining solution from the kit was added to each well and incubated at 37° C. without CO2 overnight. The next day, the cells were washed with 1×PBS and the numbers of blue stained cells (which indicate senescent cells) and unstained cells were counted in image J (www.imagej.nih.gov). The percentage of senescent cells was calculated.

In data set [6] the test system is CYP450 isoenzymes 1A2, 2B6, 2C8, 2C9, 2C19, 2D6, 2J2, 3A4 and 3A5 (except 3A4 BOMCC). Description: P450 profiling with Vivid substrates. The settings on record: human, probe Vivid substrates; isoenzymes recommended for testing by FDA guidance except 3A4 BOMCC; 500 nM highest tested concentration. It is filed as in vitro ADME.
Data set [7] deals with AURKA or other PLK family members. The settings on record: cited from earlier work.
For data set [8], the system named is PLK4 mRNA in MON rhabdoid cells. Nature of the data set: qPCR for PLK4 expression. Format: cell-based, human. The settings on record: 10, 50, 100 and 500 nM for 24, 48 and 72 hours vs 0.1% DMSO. As for the experimental part:
The expression of PLK4 (Hs00179514_m1) in each cell line was verified by TaqMan GE assays (Thermo Fisher Scientific, USA) using the housekeeping gene GAPDH (Hs02758991_g1) as reference. Total RNA (2 μg) was used to make cDNA using the Applied Biosystems High Capacity RNA-to-cDNA kit (Thermo Fisher Scientific). Reactions were performed in triplicate with adequate positive and negative controls. The normalized expression levels were calculated by […] method using the housekeeping gene and a pool of all samples as calibrator.

Data set [9] deals with MON cells. Description: Invasion and migration assays (Transwell). The settings on record: 100 nM, 24 hr. It is filed as cell-based, human. As for the experimental part:
(§2) Both migration and invasion were assessed using a 24-well Transwell chamber system (Corning, USA).[35] MON cells were plated at 20,000 per well for cell migration and at 50,000 per well coated with matrigel (200 μg/ml, 3 hr of solidification) for cell invasion. HFF-SCC058 cells were used as negative controls. […] All experiments were performed in triplicates.

Data set [10] is described as follows: Brain to plasma ratio (B:P). It is filed as in vivo. The settings on record: male, CD-1, mouse, brain and plasma, po, 7.5 mg/kg, fasted male CD-1 mice, 4 hours post-dose, average. As for the experimental part:
Raw brain-to-plasma ratios (B:P) were determined by dividing the brain concentration in ng/g by the plasma concentration in ng/g (with plasma, density assumed to be of 1 g/mL). The average B:P ratio was determined to be approximately 0.08±0.3 (FIG. 12). No further CFI-400945 pharmacokinetic studies were done as part of this study.
Male CD-1 mice weighing between 20 and 40 grams were fitted with jugular vein cannulas as appropriate and fasted overnight until 4 hours post-dose. Double route of administration (oral and IV) were tested, with a single dose concentration of 7.5 mg/kg. Plasma and brain were sampled at 6 time-points, starting at 30 minutes (n=3 animals/time-point). Brain was extracted at the same plasma sampling time-point from each animal. Both plasma and brain samples were deproteinated. Brain samples were weighted, homogenized and CFI-400945 was extracted. […] The dosing solution was normalized in a matched matrix (mouse plasm) and analyzed in triplicate in the same analytical batch as the incurred samples (Absorption Systems—Exton, Pa.).

Data set [11] concerns normal breast cells. The settings on record: Sampson et al.; cited from earlier work.
In data set [12] the target is AURKC (Homo sapiens, UniProt Q9UQB9). Nature of the data set: Kinase activity screening (SelectScreen Kinase Profiling). The settings on record: read-out: kinase activity inhibited. Format: biochemical.
Sequence of AURKC (Q9UQB9 whole entry): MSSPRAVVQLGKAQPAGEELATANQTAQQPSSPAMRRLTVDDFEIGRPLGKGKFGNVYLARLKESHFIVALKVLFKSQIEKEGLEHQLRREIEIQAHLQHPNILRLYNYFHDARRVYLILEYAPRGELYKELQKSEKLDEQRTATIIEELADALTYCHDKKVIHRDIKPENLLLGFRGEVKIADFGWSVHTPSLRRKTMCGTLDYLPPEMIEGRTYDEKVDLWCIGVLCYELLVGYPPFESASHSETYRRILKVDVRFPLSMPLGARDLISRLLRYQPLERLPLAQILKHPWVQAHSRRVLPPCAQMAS
From the text: These assays utilized various formats appropriate to the kinase, its substrate and its activity. Formats included the Z-LYTE™ Kinase Assay that determines the differential sensitivity of phosphorylated and non-phosphorylated peptide substrates to proteolytic cleavage using a FRET-based readout, the Adapta™ Universal Kinase Assay that employs a homogeneous, fluorescence-based immunoassay for the detection of ADP produced by kinases and the LanthaScreen™ Eu Kinase Binding Assay that utilizes an Alexa Fluor™ conjugated “tracer” and an Eu-labeled anti-tag antibody to measure binding of a compound to the kinase target [62].
The subject of data set [13] is HFF-SCC058 non-neoplastic human fibroblast cells. Description: Immunofluorescence for gamma-tubulin (centriole number). Format: cell-based. The settings on record: 100 and 500 nM. As for the experimental part: as §1
The subject of data set [14] is DAOY and D283 cells. Nature of the data set: Migration and invasion assays, MB cell lines. It is filed as cell-based, human. The settings on record: 100 nM, 24 hour vs 0.1% DMSO. As for the experimental part: as §2
For proliferation assay DAOY was plated with 5×10^4 cells per well and D283 was plated with 5×10^5 cells per well.

In the case of `COc1ccc2c(c1)[C@]1(C[C@H]1c1ccc3c(/C=C/c4ccc(CN5C[C@@H](C)O[C@@H](C)C5)cc4)n[nH]c3c1)C(=O)N2` [CFI-400945], in data set [1], the “delay in reaching confluency (FC)” value amounted to 1.70. The “ability to generate colonies after drug removal” value in [2] is reported as “lost their ability to generate colonies”. Also, the centriole number result in data set [3] (100 nM) is “increase in centriole's number”; in data set [3] (500 nM), “significant decrease”; in data set [4] (100 nM), “slight increase in centrioles' number”; in data set [4] (500 nM), “significant depletion of centrioles”. In data set [5], the senescent cells entry is “significant increase of senescent cells”. In [6], this compound had an IC50 of more than 500 nM. Moreover, the “inhibition of AURKA or other PLK family members” value in [7] is “no significant inhibition”. Besides, in [8], the “PLK4 expression (qPCR)” value is listed as “time dependent decrease in PLK4 expression”. In addition, in [9], the invasion and migration entry was “significant reduction”. In data set [10], the partition ratio (Kp) at 4 h is approximately 0.08. The “effect on normal breast cells” value in data set [11] is given as “unaffected”. In addition, in data set [12], the inhibition at 0.5 µM was found to be 84%. Further, the “paradoxical effect on centriole number” value in [13] is “not observed”. The “cell migration and invasion” value in [14] was “significant decrease in cell migration and invasion”.
